How the values were obtained:
[1] = test system: layer V neurons in acute cortical slices; assay: Whole cell current clamp of layer V neurons in acute cortical slices; assay type: cell-based, mouse
α3Na+/K+-ATPase = α3Na+/K+-ATPase (Mus musculus, UniProt Q6PIC6); assay: Na+ imaging (SBFI-AM) of cultured cortical cells; assay type: cell-based; details: fragment or ouabain alone; neurons

| Compound | action potential frequency [1] [Hz] | membrane potential [1] [mV] | neuronal intracellular Na+ (α3Na+/K+-ATPase) |
| --- | --- | --- | --- |
| C=C(C)[C@H]1CN[C@H](C(=O)O)[C@H]1CC(=O)O [kainic acid, reference compound] | 0.6±0.2 | −56.2±1.3 | – |
| C[C@@H]1O[C@@H](O[C@H]2C[C@@H](O)[C@]3(CO)[C@H]4[C@H](O)C[C@]5(C)[C@@H](C6=CC(=O)OC6)CC[C@]5(O)[C@@H]4CC[C@]3(O)C2)[C@H](O)[C@H](O)[C@H]1O [ouabain, reference compound] | – | – | increase |

— patent US20100095387A1, “METHODS AND REAGENTS FOR SCREENING NEW DRUGS AND FOR TREATING ION PUMP ASSOCIATED DISORDERS AND DISEASES” (priority 2005, published 2010)
